{
  "source": "patent US4552877A",
  "about": "“Nb -Quaternary derivatives of sandwicine and isosandwicine methods and intermediate products in the manufacture of their derivatives and methods of using same and pharmaceutical compositions thereof” (Kali-Chemie Pharma GmbH, priority 1979, dated 1985)",
  "key": {"[1]": {"system": "male NMRI-mice", "assay": "minimum symptom dose (procedure of Campbell and Richter)", "format": "in vivo, mouse", "settings": "i.p., changes in behavior in 2 out of 3 mice", "procedure": "The minimum symptom dose is determined in male NMRI-mice (body weight range 18-22 g) according to the procedure of Campbell and Richter (see D.E.S. Campbell and W. Richter, Acta Pharmacol Toxicol, 25 (1967), pp 345-363). The minimum symptom dose is defined as that dose in μmol/kg which after i.p. administration causes changes in behavior in 2 out of 3 mice. The minimum symptom dose is a measure for evaluating undesirable side effects."}, "[2]": {"assay": "acute toxicity (LD50, 7th day after application)", "format": "in vivo, mouse", "settings": "mouse, in vivo, male NMRI-mice, mortality on 7th day", "procedure": "(§1) The acute toxicity of the compounds is determined in male NMRI-mice (body weight range 18-22 g) after oral (p.o) and intraperitonal (i.p.) administration. The LD50 is defined as that dose in μmole/kg which causes a 50% mortality rate of the test animals on the 7th day after application. The calculation of the LD50 is carried out by probitanalysis (see L. Cavalli-Sforza, Grundbegriffe der Biometrie, Gustav Fischer Verlag, Stuttgart, (1964))."}, "[3]": {"system": "isolated left atria of female guinea pigs", "assay": "functional refractory period (FRP) and contraction force (CF) in isolated left atria, double stimulus method of Govier", "parameters": "species or system guinea pig", "settings": "for IC25 / EC25: Cavia porcellus, 0.3 h; for IC25: read-out: CF (concentration reducing contraction force to 75% of starting value); for EC25: read-out: FRP (concentration prolonging functional refractory period to 125% of starting value); for ratio between contraction force-reducing dose and functional refractory period-prolonging dose (CF/FRP): indication of the therapeutic range of the antiarrhythmic effect on the isolated organ, 18 min", "procedure": "The prolongation of the functional refractory period (FRP) and the contraction force (CF) in the isolated left atria of female guinea pigs (albino Pirbright-white guinea pigs, body weight 300-400 g) are determined according to the double stimulus method of Govier (see W.C. Govier, J. Pharmakol. Exp. Ther. 148 (1965) pp 100-105). The concentrations which are given in the table below are the concentrations in μmol/l which 18 minutes after application leads to a prolongation of the functional refractory period to 125% or respectively to a reduction of the contraction force to 75% of the starting value. Furthermore, the ratio between contraction force-reducing dose and functional refractory period-prolonging dose is given. This ratio is an indication of the therapeutic range of the antiarrhythmic effect on the isolate organ (see K. Gref, Verh. Dtsch. Ges. Kreislaufforsch. 35 (1969) pp 88-97)."}, "[4]": {"system": "male NMRI-mice", "assay": "acute toxicity (LD50, 7th day after application)", "format": "in vivo, mouse", "settings": "mortality on 7th day, 10080 min; for LD50 p.o.: oral", "procedure": "as §1"}, "[5]": {"settings": "ip, intraperitoneal, read-out: LD50 i.p."}, "[6]": {"settings": "isolated guinea pig left atria, 18 minutes after application"}},
  "note": "Where a name gives a salt, the structure may show the parent alone. Read-outs that look alike come from different tables or passages of the source.",
  "data": [
    {"smiles": "CCC1C2CC3C4N(C)c5ccc(Br)cc5C45CC(C2C5O)[N+]3(C)C1O", "note": "(stereo not drawn) [Example 1.b, Nb-methyl-10-bromosandwicinium hydrogen tartrate]", "values": [
      {"measurement": "Min. Symptom-dose", "setting": "[1]", "result": 11, "unit": "µmol/kg"},
      {"measurement": "LD50 at 168 h", "setting": "[2]; [5]", "result": 325, "unit": "µmol/kg"},
      {"measurement": "LD50 at 168 h", "setting": "[2]; po, read-out: LD50 p.o.", "result": 1910, "unit": "µmol/kg"},
      {"measurement": "IC25", "setting": "[3]; [6]", "result": 20.2, "unit": "µM"},
      {"measurement": "EC25", "setting": "[3]; [6]", "result": 3.2, "unit": "µM"},
      {"measurement": "ratio between contraction force-reducing dose and functional refractory period-prolonging dose (CF/FRP)", "setting": "[3]", "result": 6.4}
    ]},
    {"smiles": "CCC[N+]12C(O)C(CC)C3CC1C1N(C)c4ccc(Br)cc4C14CC2C3C4O", "note": "(stereo not drawn) [Example 2.b, Nb-n-propyl-10-bromosandwicinium hydrogen tartrate]", "values": [
      {"measurement": "Min. Symptom-dose", "setting": "[1]", "result": 42, "unit": "µmol/kg"},
      {"measurement": "LD50 at 168 h", "setting": "[2]; [5]", "result": 101, "unit": "µmol/kg"},
      {"measurement": "LD50 p.o.", "setting": "[4]", "result": 1133, "unit": "µmol/kg"},
      {"measurement": "IC25", "setting": "[3]; [6]", "result": 4.7, "unit": "µM"},
      {"measurement": "EC25", "setting": "[3]; [6]", "result": 1.4, "unit": "µM"},
      {"measurement": "ratio between contraction force-reducing dose and functional refractory period-prolonging dose (CF/FRP)", "setting": "[3]", "result": 3.3}
    ]},
    {"smiles": "CCCCCC[N+]12C(O)C(CC)C3CC1C1N(C)c4ccc(Br)cc4C14CC2C3C4O", "note": "(stereo not drawn) [Example 4.b, Nb-n-hexyl-10-bromosandwicinium hydrogen tartrate]", "values": [
      {"measurement": "Min. Symptom-dose", "setting": "[1]", "result": 39, "unit": "µmol/kg"},
      {"measurement": "LD50 at 168 h", "setting": "[2]; [5]", "result": 112, "unit": "µmol/kg"},
      {"measurement": "LD50 at 168 h", "setting": "[2]; po, read-out: LD50 p.o.", "result": "> 2300", "unit": "µmol/kg"},
      {"measurement": "IC25", "setting": "[3]; [6]", "result": 2, "unit": "µM"},
      {"measurement": "EC25", "setting": "[3]; [6]", "result": 4.3, "unit": "µM"},
      {"measurement": "ratio between contraction force-reducing dose and functional refractory period-prolonging dose (CF/FRP)", "setting": "[3]", "result": 0.5}
    ]},
    {"smiles": "CCC1C2CC3C4N(C)c5ccc(Br)cc5C45CC(C2C5O)[N+]3(CC(O)CN2CCCCC2)C1O", "note": "(stereo not drawn) [Example 8, Nb-[2-hydroxy-3-(1-piperidinyl)propyl]-10-bromosandwicinium bishydrogen tartrate]", "values": [
      {"measurement": "Min. Symptom-dose", "setting": "[1]", "result": 59, "unit": "µmol/kg"},
      {"measurement": "LD50 at 168 h", "setting": "[2]; [5]", "result": 169, "unit": "µmol/kg"},
      {"measurement": "LD50 at 168 h", "setting": "[2]; po, read-out: LD50 p.o.", "result": 1190, "unit": "µmol/kg"},
      {"measurement": "IC25", "setting": "[3]; [6]", "result": 3.4, "unit": "µM"},
      {"measurement": "EC25", "setting": "[3]; [6]", "result": 8.3, "unit": "µM"},
      {"measurement": "ratio between contraction force-reducing dose and functional refractory period-prolonging dose (CF/FRP)", "setting": "[3]", "result": 0.4}
    ]},
    {"smiles": "CCC[N+]12C(O)C(CC)C3CC1C1N(C)c4ccc(Br)cc4C14CC2C3C4O", "note": "(stereo not drawn) [Example 12.b, Nb-n-propyl-10-bromoisosandwicinium hydrogen tartrate]", "values": [
      {"measurement": "Min. Symptom-dose", "setting": "[1]", "result": 10, "unit": "µmol/kg"},
      {"measurement": "LD50 i.p.", "setting": "[4]; intraperitoneal", "result": 118, "unit": "µmol/kg"},
      {"measurement": "LD50 p.o.", "setting": "[4]", "result": 566, "unit": "µmol/kg"},
      {"measurement": "ratio between contraction force-reducing dose and functional refractory period-prolonging dose (CF/FRP)", "setting": "[3]", "result": 3.6},
      {"measurement": "CF (concentration reducing contraction force to 75% of starting value)", "setting": "[3]; [6]", "result": 6.5, "unit": "µmol/L"},
      {"measurement": "FRP (concentration prolonging functional refractory period to 125% of starting value)", "setting": "[3]; [6]", "result": 1.8, "unit": "µmol/L"}
    ]},
    {"smiles": "CCC[N+]12C(O)C(CC)C3CC1C1N(C)c4ccccc4C14CC2C3C4O", "note": "(stereo not drawn) [Neo-Gilurytmal, Nb -propylajmalinium hydrogen tartrate, reference compound]", "values": [
      {"measurement": "Min. Symptom-dose", "setting": "[1]", "result": 12, "unit": "µmol/kg"},
      {"measurement": "LD50 at 168 h", "setting": "[2]; [5]", "result": 41, "unit": "µmol/kg"},
      {"measurement": "LD50 at 168 h", "setting": "[2]; po, read-out: LD50 p.o.", "result": 65, "unit": "µmol/kg"},
      {"measurement": "IC25", "setting": "[3]; [6]", "result": 0.26, "unit": "µM"},
      {"measurement": "EC25", "setting": "[3]; [6]", "result": 1.8, "unit": "µM"},
      {"measurement": "ratio between contraction force-reducing dose and functional refractory period-prolonging dose (CF/FRP)", "setting": "[3]", "result": 0.15}
    ]}
  ]
}
